Assays:
ERK1/2 [1] = assay: ERK1/2 phosphorylation immunoblot in TCC-Sup cells; format: cell-based, human; conditions: AG1478 250 nM, BB94 10 μM, Crm197 10 μg/mL, FIG. 6A
Procedure: (§1) FIG. 6. MAPK activation in response to stress agents and blockade of EGFR, metalloprotease and HB-EGF function. (A) Cos-7 cells transiently transfected with pcDNA3-HA-ERK2, TCC-Sup and NCI-H292 cells were pre-treated with AG1478 (250 nM), BB94 (10 μM), Crm197 (10 μg/mL) or an equal volume of empty vehicle (DMSO) for 20 min and stimulated with 0.3 M sorbitol or 200 μM hydrogen peroxide for 30 min. After cell lysis total lysates were immunoblotted with anti-phospho-ERK antibody, followed by reprobing of the same membranes with polyclonal anti-ERK antibody. Quantitative analysis of ERK phosphorylation from three independent experiments (mean[…]s.d.) using the FUJI LAS1000 imaging system. (B) Cos-7 and NCI-H292 cell were treated as described under (A). After lysis, JNK was immunoprecipitated using an anti-JNK antibody, and JNK activity was assayed using GST-c-JUN fusion protein as a substrate. Phosphorylated GST-c-JUN was visualized by autoradiography and JNK was immunoblotted in parallel using polyclonal JNK antibody. Quantitative analysis of GST-c-JUN phosphorylation from three independent experiments (mean[…]s.d.) using the FUJI LAS1000 imaging system. TCC-Sup cells were treated as described under (A). […]
(§2) Cells were lysed and proteins immunoprecipitated as described before (Daub et al., 1997). […] Phosphotyrosine was detected with the 4G10 monoclonal antibody (UBI, Lake Placid, N.Y.). […]

ERK1/2 [2] = assay: ERK1/2 phosphorylation immunoblot in Cos-7 cells (pcDNA3-HA-ERK2); format: cell-based; conditions: AG1478 250 nM, BB94 10 μM, Crm197 10 μg/mL 20 min, stimulated 30 min, FIG. 6A
Procedure: as §1, §2

p38 = p38 phosphorylation immunoblot in Cos-7 cells; format: cell-based; conditions: AG1478 250 nM 20 min, 0.3 M sorbitol or 200 μM hydrogen peroxide, FIG. 2A
Procedure: FIG. 2. p38 mediates stress-induced EGFR phosphorylation. (A) Time-coure of p38 phosphorylation dependent on EGFR kinase function. Cos-7 cells were pretreated with AG1478 (250 nM) or an equal volume of empty vehicle (DMSO) for 20 min and stimulated with 0.3 M sorbitol or 200 μM hydrogen peroxide for the indicated periods. Cell extracts were immunoblotted with anti-phospho-p38 antibody and reprobing of the same filters with polyclonal anti-p38 antibody. (B) Stress-induced EGFR activation depends on p38 but not ERK activity in Cos-7 cells. Cos-7 cells were pre-treated with PD98059 (50 μM), SB202190 (10 μM) or an equal volume of empty vehicle (DMSO) for 30 min and stimulated with 0.3 M sorbitol and 200 μM hydrogen peroxide for 10 min and the GPCR agonist LPA (10 μM) or EGF (2 ng/mL) for 3 min as positive controls. Cell extracts were assayed for EGFR tyrosine phosphorylation content. (C) Stress-induced EGFR activation depends on p38 activity in TCC-Sup carcinoma cells. […]
FIG. 6. […] Quantitative analysis of ERK phosphorylation from three independent experiments (mean[…]s.d.) using the FUJI LAS1000 imaging system. […] Quantitative analysis of GST-c-JUN phosphorylation from three independent experiments (mean[…]s.d.) using the FUJI LAS1000 imaging system. […]

ERK1/2 [3] = assay: ERK1/2 phosphorylation immunoblot in NCI-H292 cells; format: cell-based, human; conditions: AG1478 250 nM, BB94 10 μM, Crm197 10 μg/mL, FIG. 6A
Procedure: as §1, §2

EGFR [4] = assay: EGFR tyrosine phosphorylation (IP/immunoblot) in NCI-H292 lung carcinoma cells; format: cell-based, human; conditions: for stress-induced EGFR activation upon siRNA transfection: 0.3 M sorbitol or 200 μM hydrogen peroxide 10 min
EGFR [5] = assay: EGFR tyrosine phosphorylation (IP/immunoblot) in Cos-7 cells; format: cell-based; conditions: for stress-induced EGFR activation: pre-treated 30 min with SB202190 10 μM or PD98059 50 μM, 0.3 M sorbitol or 200 μM hydrogen peroxide 10 min; for EGFR activation by oxidative stress: Src inhibitors, unpublished data; for EGFR activation after sorbitol or hydrogen peroxide upon siRNA transfection: both stress stimuli, 10 min, FIG. 5B
[6] = target: epidermal growth factor receptor (EGFR) (UniProt P00533); assay: cell-based or functional assay
ADAM9 = assay: RNA interference, gene expression by RT-PCR in NCI-H292 cells; format: cell-based, human; conditions: 2 days after transfection, FIG. 5A
Procedure: (§3) FIG. 5. Effect of siRNAs against different ADAM proteins on stress-induced EGFR phosphorylation. (A) Blockade of ADAM metalloprotease expression by RNA interference (RNAi). NCI-H292 cells were transfected with siRNA against ADAM9, ADAM10 or ADAM15, cultured for 2 days and analyzed for gene expression by RT-PCR as indicated. (B) Cos-7 cells were transfected with siRNAs against ADAM9, -10, -12, -15 and -17, serum-starved for 24 hours, stimulated with 0.3 M sorbitol or 200 μM hydrogen peroxide for 10 min and assayed for EGFR tyrosine phosphorylation content. (C)NCI-H292 cells were treated as described under (B).
(§4) Transfection of 21-nucleotide siRNA duplexes (Dharmacon Research, Lafayette, Colo., USA) for targeting endogenous genes was carried out using Oligofectamine (Invitrogen) for NCI-H292 cells and 4.2 μg siRNA duplex per 6-well plate as previously described (Elbashir et al., 2001). Cos-7 cells were transfected using Lipofectamine 2000 (Invitrogen) according to the manufacturer's protocol. Briefly, 8.4 μg siRNA duplex per 6 cm dish were incubated with 10 μL Lipofectamine 2000 in 1 mL serum-free medium for 20 minutes. The transfection mixture was added to the cell culture medium containing serum and, after 6 h, cells were washed and incubated in medium containing serum overnight. NCI-H292 and Cos-7 cells were serum-starved and assayed 2 d after transfection. Highest efficiencies in silencing target genes were obtained by using mixtures of siRNA duplexes targeting different regions of the gene of interest. Sequences of siRNA used were
(§5) Specific silencing of targeted genes was confirmed by RT-PCR analysis. RNA isolated using RNeasy Mini Kit (Qiagen, Hilden, Germany) was reverse transcribed using AMV Reverse Transcriptase (Roche, Mannheim, Germany). PuReTaq Ready-To-Go PCR Beads (Amersham Biosciences, Piscataway, N.J.) were used for PCR amplification. Primers (Sigma Ark, Steinheim, Germany) were
(§6) PCR products were subjected to electrophoresis on a 2.5% agarose gel and DNA was visualized by ethidium bromide staining.

ADAM10 = assay: as above; format: cell-based, human; conditions: 2 days after transfection, FIG. 5A
Procedure: as §3, §4, §5, §6

ADAM15 = assay: as above; format: cell-based, human; conditions: 2 days after transfection, FIG. 5A
Procedure: as §3, §4, §5, §6

In the case of `COc1cc2ncnc(Nc3cccc(Cl)c3)c2cc1OC` [AG1478], the “hyperosmolarity and oxidative stress-induced ERK1/2 activation” value (ERK1/2 [1]) is reported as “substantially blocked”, the “sorbitol and hydrogen peroxide-induced activation of ERK1/2” value (ERK1/2 [2]) is reported as “blocked” and the “p38 phosphorylation in response to stress agents” value (p38) is reported as “did not affect”. The “hyperosmolarity and oxidative stress-induced ERK1/2 activation” value (ERK1/2 [3]) was “substantially blocked”.

`CNC(=O)[C@H](Cc1ccccc1)NC(=O)[C@H](CC(C)C)[C@H](CSc1cccs1)C(=O)NO` [BB94, Batimastat] was tested, and the “inhibition of stress-induced EGFR activation” value (EGFR [4]; BB94 10 μM 20 min, sorbitol 0.3 M or hydrogen peroxide 200 μM 10 min, printed 'inhibited ... to 50%') was 50%.

In the case of `COc1cccc(-c2cc(=O)c3ccccc3o2)c1N` [PD98059], the “stress-induced EGFR activation” value (EGFR [5]; FIG. 2B) is reported as “did not affect”.

`Cc1ccc(-c2nn(C(C)(C)C)c3ncnc(N)c23)cc1` [PP1] was tested, and the “EGFR activation by oxidative stress” value (EGFR [5]) was “did not achieve specific inhibition”.

`CC(C)(C)n1nc(-c2ccc(Cl)cc2)c2c(N)ncnc21` [PP2] was tested, and the “EGFR activation by oxidative stress” value (EGFR [5]) was “did not achieve specific inhibition”.

With `Oc1ccc(-c2nc(-c3ccncc3)c(-c3ccc(F)cc3)[nH]2)cc1` [SB202190] the EGF-induced receptor phosphorylation (EGFR [5]; SB202190 10 μM 30 min, EGF 2 ng/mL 3 min, FIG. 2B) was “unaffected”, the LPA-induced receptor phosphorylation (EGFR [5]; SB202190 10 μM 30 min, LPA 10 μM 3 min, FIG. 2B) was “unaffected” and the “stress-induced EGFR activation” value (EGFR [5]; FIG. 2B) was “completely abrogated”.

In the case of “HB-EGF (from UniProt Q99075 20-208) (ligand)”, the JNK activity in response to oxidative stress (Cos-7 cells; kinase assay with GST-c-JUN) [6] is reported as 50%.

For “siRNA against ADAM9: mixture of 21-nucleotide siRNA duplexes, SEQ ID NO 1 and 2, targeting ADAM9 (chain 1 AAUCACUGUGGAGACAUUUGCTT; chain 2 AAACUUCCAGUGUGUAGAUGCTT; chemistry not fully specified)”, the “stress-induced EGFR activation upon siRNA transfection” value (EGFR [4]; FIG. 5C) was “participate in the stress response” and the “knockdown of target gene expression (ADAM9)” value (ADAM9) was “efficient and specific knockdown”.

In the case of “siRNA against ADAM10: mixture of 21-nucleotide siRNA duplexes, SEQ ID NO 3 and 4, targeting ADAM10 (chain 1 AAUGAAGAGGGACACUUCCCUTT; chain 2 AAGUUGCCUCCUCCUAAACCATT; chemistry not fully specified)”, the “knockdown of target gene expression (ADAM10)” value (ADAM10) is reported as “efficient and specific knockdown” and the “EGFR activation after sorbitol or hydrogen peroxide upon siRNA transfection” value (EGFR [5]) is reported as “involved in EGFR activation”.

In the case of “siRNA against ADAM12: mixture of siRNA duplexes, SEQ ID NO 5 and 6, targeting ADAM12 (chain 1 AACCUCGCUGCAAAGAAUGUGTT; chain 2 AAGACCUUGATACGACUGCUGTT; chemistry not fully specified)”, the “EGFR activation upon siRNA transfection, hydrogen peroxide treatment only” value (EGFR [4]; 200 μM hydrogen peroxide, FIG. 5C) is reported as “participate in the stress response”.

For “siRNA against ADAM15: mixture of siRNA duplexes, SEQ ID NO 7 and 8, targeting ADAM15 (chain 1 AACUCCAUCUGUUCUCCUGACTT; chain 2 AAAUUGCCAGCUGCGCCCGUCTT; chemistry not fully specified)”, the “knockdown of target gene expression (ADAM15)” value (ADAM15) was “efficient and specific knockdown”.

B1: siRNA against ADAM17: mixture of siRNA duplexes, SEQ ID NO 9 to 11, targeting ADAM17 (nucleic acid)
chain 1: AAAGUUUGCUUGGCACACCUUTT
chain 2: AAGUAAGGCCCAGGAGUGUUTT
chain 3: AACAUAGAGCCACUUUGGAGATT
modifications: chemistry not fully specified
In the case of B1, the “stress-induced EGFR activation upon siRNA transfection” value (EGFR [4]; FIG. 5C) is reported as “involved in stress-induced EGFR activation” and the “EGFR activation after sorbitol or hydrogen peroxide upon siRNA transfection” value (EGFR [5]) is reported as “involved in EGFR activation”.

Reference: patent publication US20060148694A1, “Inhibition of stress-induced ligand-dependent egfr activation” (Max-Planck-Gesellschaft zur Foerderung der Wessenschaften. …, priority 2003, published 2006)
